Measured values published in patent US20110118298A1, “COMPOSITIONS, KITS, AND METHODS FOR IDENTIFICATION, ASSESSMENT, PREVENTION, AND THERAPY OF CANCER” (INFINITY PHARMACEUTICALS, INC., priority 2009, published 2011).
Counter-ions that a name gives are not always drawn. Marks after values point to notes of the source that are not given here.

Key:
[1] = tested on: non-small cell lung cancer (NSCLC); assay: Phase II study of IPI-504 monotherapy in advanced NSCLC after EGFR TKI therapy: response and PFS; assay type: in vivo, human
Excerpt: Patients with advanced NSCLC, prior treatment with EGFR TKIs, and tumor tissue available for molecular genotyping were enrolled in this prospective, non-randomized, multicenter, phase II study of IPI-504 monotherapy. The primary outcome was objective response rate. Secondary aims included safety, progression-free survival (PFS), and analysis of activity by molecular subtypes.
Each genotype-defined arm of the trial (mutant EGFR cohort or wild-type EGFR cohort) functioned as a Simon two-stage study with planned interim evaluation after 10 patients and expanded enrollment of an additional 19 patients (a total of 29 patients) if there was at least one patient with a complete response (CR), partial response (PR) or stable disease (SD) lasting 3 months. As pre-defined EGFR genotype was not a requirement at study entry, the trial remained open until both cohorts fully enrolled, which led to over-enrollment of the wild-type arm. Secondary aims included describing the safety and progression-free survival (PFS) of the regimen, and examining molecular markers associated with response.
Patients were recruited between December 2007 and May 2009 from ten US cancer centers. To be eligible, patients had to have stage IIIB (with pleural effusion), or stage 1V NSCLC with progression on EGFR TKI therapy at some point in their history; adequate baseline renal, hepatic, and bone marrow function; Eastern Cooperative Oncology Group performance status (PS) of 0-2; measurable disease by RECIST 1.0; no active or untreated central nervous system (brain) metastases; no significant cardiac conduction abnormalities; no ongoing keratoconjunctivitis; and either previously defined EGFR genotype or sufficient tumor tissue to undergo genotype assessment, for example, EGFR mutation analysis (EGFR status not required for study entry) (Therasse, P. et al. (2000) J Natl Cancer Inst 92, 205-216; Oken, M. M. et al. (1982) Am J Clin Oncol. 5:649-655). Patients had experienced prior EGFR TKI therapy and there was no limit on prior therapies. All patients signed a written informed consent and the study was monitored by all local institutional review boards. Funding for the trial was provided by Infinity Pharmaceuticals, Inc.
Treatment consisted of a 30-minute infusion of intravenous IPI-504 on days 1, 4, 8 and 11 of a 21-day cycle. Therapy continued until progressive disease (PD), intolerable side effects, or elective withdrawal. A total of 76 patients were enrolled. The starting dose was 400 mg/m^2 for 75 patients. In April 2009, the dose for patients who were on study (19 patients) was lowered to 225 mg/m^2, due to hepatotoxicities observed at the 400 mg/m^2 dose in a separate trial of IPI-504 in patients with gastrointestinal stromal tumors (GIST) (Demetri G. D. et al. Final results from a phase III study of IPI-504 (retaspimycin hydrochloride) versus placebo in patients with gastrointestinal stromal tumors (GIST) following failure of kinase inhibitor therapies. Paper presented at: Gastrointestinal Cancers Symposium; Jan. 22-24, 2010, 2010; Orlando, Fla.), and the last enrolled patient started at a dose of 225 mg/m^2.
All patients were assessed for safety by history, physical examination, blood chemistries, liver function tests and blood counts, at baseline and prior to each infusion. Amylase and lipase were assessed if there were symptoms of pancreatitis. Adverse events were graded using the NCl common toxicity criteria version 3.0 (NCl. Common terminology criteria for adverse events (CTCAE) version 3.0 Aug. 9, 2006). Slit lamp eye examinations were performed during screening and electrocardiograms were obtained during screening and before and after the first infusion, to evaluate for keratitis and QTc prolongation, respectively. Radiographic evaluation of tumor response by CT-scan was performed after every 2 cycles. All films were reviewed and independently assessed by a central radiology core laboratory. […]

H3122 xenograft = assay: H3122 xenograft, tumor volume; assay type: in vivo, nude mice; settings: IPI-504 75 mg/kg twice weekly
Experimental: Tumor volume (in mm^3) is shown as a function of days of treatment.
Tumor volumes were assessed as described above.

[2] = tested on: Colo201 (mutant BRAF) xenograft; assay: Colo201 xenograft, 17-AG, Irinotecan and combination; assay type: in vivo, nude mice
Experimental: In the sixth set of studies, subcutaneous xenografts of Colo201 (mutant BRAF) were established by implantation of 10×10^6 cells into the right flank of nude mice. Once tumors reached approximately 100-150 mm^3, animals were randomized into treatment groups and administered either vehicle or a suspension of 50% 17-AG in HPMC-AS-HG dispersion in vehicle (1% hydroxyethylcellulose, 5% glycerol) (100 mg/kg, M-W-F, 3 weeks), Irinotecan (100 mg/kg, Q7D, 3 weeks) or the combination of a suspension of 50% 17-AG in HPMC-AS-HG dispersion in vehicle (1% hydroxyethylcellulose, 5% glycerol) (50 mg/kg, M-W-F) and Irinotecan (75 mg/kg, Q7D) for three weeks, and tumor volume measured twice per week (FIG. 26A; FIG. 26B is a zoomed-in section of FIG. 26A). At the end of the dosing period, animals were monitored for an additional 57 days to follow tumor growth delay. […] Similar results to those described above for the Colo201 model were also observed in two separate colorectal models (HCT-116 and DuDu1, […]) (Experiments 7 and 8).

SMILES: C=CCNc1c(O)cc2c(O)c1C[C@@H](C)C[C@H](OC)[C@H](O)[C@@H](C)/C=C(\C)[C@H](OC(N)=O)[C@@H](OC)/C=C\C=C(/C)C(=O)N2 [IPI-504, retaspimycin hydrochloride]
- time on IPI-504 without progression or death ([1]; 3 patients with ALK rearrangements): approximately 7 months
- RECIST Stable Disease or better for at least 3 months ([1]; ALK No Rearrangement Detected): 3 (25) n [%]
- Objective Response Rate (All PRs) ([1]; ALK No Rearrangement Detected, 12 patients): 1 (8) n [%]
- Median PFS ([1]; ALK No Rearrangement Detected, no unit in table): 2.43
- RECIST Stable Disease or better for at least 3 months ([1]; ALK Rearrangement Detected): 3 (100) n [%]
- Objective Response Rate (All PRs) ([1]; ALK Rearrangement Detected, 3 patients): 2 (67) n [%]
- RECIST Stable Disease or better for at least 3 months ([1]; EGFR Mutant): 6 (21) n [%]
- Objective Response Rate (All PRs) ([1]; EGFR Mutant, 28 patients): 1 (4) n [%]
- Median PFS ([1]; EGFR Mutant, no unit in table): 2.76
- RECIST Stable Disease or better for at least 3 months ([1]; EGFR Wild Type): 10 (25) n [%]
- Objective Response Rate (All PRs) ([1]; EGFR Wild Type, 40 patients): 4 (10) n [%]
- Median PFS ([1]; EGFR Wild Type, no unit in table): 2.86
- response rate ([1]; EGFR wild-type patients): 10%
- RECIST Stable Disease or better for at least 3 months ([1]; KRAS Mutant): 5 (42) n [%]
- Objective Response Rate (All PRs) ([1]; KRAS Mutant, 12 patients): 0 (0) n [%]
- Median PFS ([1]; KRAS Mutant, no unit in table): 3.91
- RECIST Stable Disease or better for at least 3 months ([1]; KRAS Wild Type): 4 (15) n [%]
- Objective Response Rate (All PRs) ([1]; KRAS Wild Type, 26 patients): 3 (12)* n [%]
- Median PFS ([1]; KRAS Wild Type, no unit in table): 2.86
- response rate ([1]; KRAS wild-type patients): 12%
- Objective Response Rate (All PRs) ([1]; Total, 76 patients): 5 (7) n [%]
- RECIST Stable Disease or better for at least 3 months ([1]; Total, 76 patients): 18 (24) n [%]
- Median PFS ([1]; Total, no unit in table, months): 2.86
- Median PFS ([1]; all patients): 2.86 months
- patients with partial response ([1]; of the 3 patients with an ALK gene rearrangement): 2 patients
- overall response rate ([1]; overall study population): 7%
- response rate ([1]; patients with EGFR mutations): 4%
- response rate ([1]; patients with an ALK rearrangement): 67%
- reduction in tumor size ([1]; third patient with ALK rearrangement (stable disease)): 24%
- tumor response (H3122 xenograft): tumor regression

SMILES: CO[C@H]1/C=C\C=C(/C)C(=O)NC2=CC(=O)C(N)=C(C[C@@H](C)C[C@H](OC)[C@H](O)[C@@H](C)/C=C(\C)[C@@H]1OC(N)=O)C2=O [IPI-493, 17-AG]
- complete responses (complete disappearance of a palpable tumor) ([2]; combination 50 + 75 mg/kg, single agents 100 mg/kg each): no complete responses
- TGI while on drug ([2]; single agent, 17-AG 100 mg/kg M-W-F or Irinotecan 100 mg/kg Q7D, 3 weeks): ~88%
